Target: HKU4-CoV 3CL^pro (Bat coronavirus HKU4, UniProt P0C6W3)
Format: biochemical, Tylonycteris bat coronavirus HKU4

Sequence of HKU4-CoV 3CL^pro (P0C6W3 3292-3597 limits assumed): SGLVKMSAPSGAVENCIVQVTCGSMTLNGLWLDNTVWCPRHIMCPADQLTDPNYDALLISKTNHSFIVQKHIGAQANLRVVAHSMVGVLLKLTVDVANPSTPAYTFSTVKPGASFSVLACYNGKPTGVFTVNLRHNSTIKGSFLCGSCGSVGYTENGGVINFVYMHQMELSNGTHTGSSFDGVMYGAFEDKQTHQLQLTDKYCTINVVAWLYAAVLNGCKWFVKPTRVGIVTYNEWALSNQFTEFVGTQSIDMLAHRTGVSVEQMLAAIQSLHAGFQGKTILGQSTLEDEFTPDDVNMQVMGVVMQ

Question: For `CC(=O)Nc1ccc(N(C(=O)Cn2nnc3ccccc32)C(C(=O)NC(C)(C)C)c2ccsc2)cc1` (stereo not shown) [3B], which “increase in IC50” value is on record?
Answer: Its value is 5 fold.

Question: `O=C(Cn1nnc2ccccc21)N(Cc1ccsc1)c1ccc(-c2ccncc2)cc1` [5A] was tested. Which fold more active did it give?
Answer: The fold more active was 2 fold.

Question: How did the “decrease in inhibitory potency between the analogs” value turn out when `CC(C)C(=O)Nc1ccc(N(Cc2ccsc2)C(=O)Cn2ccnn2)cc1` [19A] was run?
Answer: Its value is “ten-fold”.

Question: For `O=C(Nc1ccc(N(Cc2ccsc2)C(=O)Cn2nnc3ccccc32)cc1)c1cccs1` [1A], which “IC50 (μM)” value is on record?
Answer: The value was “sub-micromolar”.

Question: With `O=C(Nc1ccc(N(Cc2ccsc2)C(=O)Cn2nnc3ccccc32)cc1)c1ccccc1` [2A] as the compound, how does the “IC50 (μM)” value read?
Answer: Its value is “sub-micromolar”.

Question: Which “increase in IC50” value does the source give for `O=C(Cn1nnc2ccccc21)NCc1ccsc1` [22A, 2-(1H-Benzo[d][1,2,3]triazol-1-yl)-N-(thiophen-3-ylmethyl)acetamide] here?
Answer: The value was “greater than 200 fold”.

Question: For `O=C(Cn1nnc2ccccc21)N(Cc1ccsc1)c1ccc(NCc2ccccc2)cc1` [17A], which “increase in IC50” value is on record?
Answer: The value was 10 fold.
